Experimental data from patent US9750253B2, “Pesticidally active substituted pyridyl carboxamides” (Syngenta Participations AG, priority 2013, dated 2017).

Columns and labels:
Format in all cases: in vivo
[1] = tested on: Rhopalosiphum padi (Bird Cherry Oat Aphid); test: Activity against Rhopalosiphum padi, barley, seed treatment, mixed population, systemic/feeding activity, preventive
Description: Example B5: Activity Against Rhopalosiphum padi (Bird Cherry Oat Aphid, Barley) (Seed Treatment) Mixed Population, Systemic/Feeding Activity, Preventive
The barley seeds were coated with the active ingredients as described in the formulation example F9 above.
A treated barley seed was sown in a 350 ml pot filled with soil. Two weeks after sowing the barley seedling was infested with an aphid population of mixed stages. After an incubation period of seven days the grade of efficacy was estimated and expressed in percentage.
Activity against Rhopalosiphum padi (Bird Cherry Oat Aphid, barley) (seed treatment) mixed population, systemic/feeding activity, preventive: […]

[2] = tested on: Myzus persicae (Green Peach Aphid); test: whole plant or invertebrate; details: foliar, 144 h, sunflower leaf discs sprayed, 6 days incubation
Description: Example B1: Activity Against Myzus persicae (Green Peach Aphid) (Mixed Population, Feeding/Residual Contact Activity, Preventive)
Sunflower leaf discs were placed on agar in a 24-well microtiter plate and sprayed with test solutions. After drying, the leaf discs were infested with an aphid population of mixed ages. After an incubation period of 6 days, samples were checked for mortality and special effects (e.g. phytotoxicity).

[3] = tested on: Myzus persicae (Green Peach Aphid); test: whole plant or invertebrate; details: 144 h, pea seedlings, roots in test solution, 6 days after introduction
Text: Example B2: Activity Against Myzus persicae (Green Peach Aphid) (Mixed Population, Systemic/Feeding Activity, Curative)
Pea seedlings, infested with an aphid population of mixed ages, were placed with the roots directly in the test solutions. 6 days after introduction, samples were checked for mortality and special effects on the plant.

Bemisia tabaci = test: whole plant or invertebrate; details: foliar, 168 h, cotton leaf discs sprayed, adult white flies, 7 DAT
Description: Example B3: Activity Against Bemisia tabaci, (Adults on Cotton, Contact, Preventative)
Cotton leaf discs are placed on agar in a 24-well microtiter plate and sprayed with test solutions. After drying, the leaf discs are infested with adult white flies. After an incubation period of 7 DAT, samples are checked for mortality and special effects (e.g. phytotoxicity).

Row | SMILES | Mortality (%) ([1]; 0.01 mg ai/seed) | Mortality (%) ([1]; 0.03 mg ai/seed) | Mortality (%) ([1]; 0.1 mg ai/seed) | Mortality (%) ([1]; 0.3 mg ai/seed) | Mortality (%) ([1]; 1 mg ai/seed) | mortality at 200 ppm [2] | mortality at 24 ppm [3] | mortality at 200 ppm (Bemisia tabaci)
1 | Cc1cccnc1-n1ncc(C(=O)N(C)c2cccnc2)c1C [Compound 1.001, 1-(3-methylpyridin-2-yl)-5-methyl-1H-pyrazole-4-carboxylic acid methyl-pyridin-3-yl-amide] | 70% | 85% | 95% | 99% | 99% | ≥ 80% | > 80% | > 80%
2 | Cc1cc(Br)cnc1-n1ncc(C(=O)N(C)c2cccnc2)c1C [Compound 1.003, 1-(5-bromo-3-methyl-2-pyridyl)-N,5-dimethyl-N-(3-pyridyl)pyrazole-4-carboxamide] | – | – | – | – | – | ≥ 80% | – | –
3 | Cc1cc(C#N)cnc1-n1ncc(C(=O)N(C)c2cccnc2)c1C [Compound 1.004, 1-(5-cyano-3-methyl-2-pyridyl)-N,5-dimethyl-N-(3-pyridyl)pyrazole-4-carboxamide] | – | – | – | – | – | ≥ 80% | > 80% | –
4 | CCc1cccnc1-n1ncc(C(=O)N(C)c2cccnc2)c1C [Compound 1.025, 1-(3-ethyl-2-pyridyl)-N,5-dimethyl-N-(3-pyridyl)pyrazole-4-carboxamide] | – | – | – | – | – | ≥ 80% | – | –
5 | Cc1cccnc1-n1ncc(C(=O)N(C)c2ccc[n+]([O-])c2)c1C [Compound 1.079, 1-(3-methylpyridin-2-yl)-5-methyl-1H-pyrazole-4-carboxylic acid methyl-pyridin-N-oxide-3-yl-amide] | – | – | – | – | – | ≥ 80% | > 80% | –
6 | Cc1ccc(Cl)nc1-n1ncc(C(=O)N(C)c2ccnnc2)c1C [Compound 1.230, 1-(6-chloro-3-methyl-2-pyridyl)-N,5-dimethyl-N-pyridazin-4-yl-pyrazole-4-carboxamide] | – | – | – | – | – | ≥ 80% | – | > 80%
7 | Cc1c(C(=O)N(C)c2cccnc2)cnn1-c1ncccc1Cl [Compound 877, reference compound] | 0% | 0% | 42% | 63% | 84% | – | – | –
